Entries after “also recorded” stand apart in the source; their conditions may differ.
How the values were obtained:
[1] = cited from earlier work
[2] = test system: BM DTCs; test: p38 inhibitor plus Taxol in PyMT-induced breast tumor mice: total BM DTCs and overall survival; type: in vivo, mouse; conditions: MMTV-PyMT mice; SB203085 72 hrs prior to until 72 hrs after each Taxol dose, 3 cycles; vs Taxol alone and untreated
Method: FIGS. 9A-9B show the p38 inhibition increase the DTCs' sensitivity to cytotoxic chemotherapy. DTCs-bearing PyMT-induced breast tumor mice were either untreated or treated with Taxol alone (10 mg/kg) or with SB203085 (10 μg/kg) followed by Taxol. Taxol was given IP every 3 weeks for 3 cycles. SB203085 was given IP BID starting 72 hours prior to Taxol and continuing until 72 hours after Taxol infusion. Ten mice were included in each reference group. FIGS. 9A and B show the overall survival (A) and total BM DTCs (B) before and after chemo were determined.
Of these TWIST1-positive BM DTCs, nearly 80% (23/29) expressed activated p38 (p-p38) and 70% (20/29) were also growth arrested as measured by a lack of BrdU incorporation (FIG. 7C-D). In contrast, of the TWIST1-negative DTCs, 94% (67/71) lacked activated p38 and 77% (55/71) were also actively proliferating. […] To confirm that these BM lpDTCs were resistant to cytotoxic agents and that p38 plays a critical role in their growth arrest, these mice were treated with either SB203085 (10 μmol/kg IP BID×7 days) or the cytotoxic drug paclitaxel (Taxol, 10 mg/kg IP once) and measured the number of all BM DTCs and the fraction of lpDTCs (ratio of TWIST1+; p-p38+; BrdU-DTCs over total BM DTCs). […] Total BM DTCs were determined prior to and 1 week after treatment ended. […]

[3] = test system: BM DTCs; test: BM DTC count and lpDTC fraction in ErbB2-induced mouse breast cancer model after single-agent treatment; type: in vivo; conditions: for BM DTC count: FIG. 8A, p<0.05; for fraction of BM lpDTCs (TWIST1+; p-p38+; BrdU- DTCs over total BM DTCs): FIG. 8B
Description: FIGS. 8A-8B show the dormant TWIST1^+; p-p38; BrdU-DTCs resistance to cytotoxic drugs in ErbB2-induced mouse breast cancer model.
Of these TWIST1-positive BM DTCs, nearly 80% (23/29) expressed activated p38 (p-p38) and 70% (20/29) were also growth arrested as measured by a lack of BrdU incorporation (FIG. 7C-D). In contrast, of the TWIST1-negative DTCs, 94% (67/71) lacked activated p38 and 77% (55/71) were also actively proliferating. Therefore TWIST1-positive; p-p38-positive; BrDU-negative cells represent the fraction of true lpDTCs in these models. To confirm that these BM lpDTCs were resistant to cytotoxic agents and that p38 plays a critical role in their growth arrest, these mice were treated with either SB203085 (10 μmol/kg IP BID×7 days) or the cytotoxic drug paclitaxel (Taxol, 10 mg/kg IP once) and measured the number of all BM DTCs and the fraction of lpDTCs (ratio of TWIST1+; p-p38+; BrdU-DTCs over total BM DTCs). […] ErbB2- or PyMT-induced breast tumor mice were untreated or treated with either Taxol alone or a combination of SB203085 plus Taxol with SB203085 starting 72 hrs prior to and ending 72 hrs after each dose of Taxol (FIG. 9). Three 21-day cycles of chemotherapy were given. Total BM DTCs were determined prior to and 1 week after treatment ended.

[4] = test system: TWIST1-overexpressing cells; test: Reversal of TWIST1-dependent growth arrest by p38 inhibition; type: cell-based; conditions: FIG. 4A
Description: TWIST1 was overexpressed so as to achieve maximal TWIST1 effect, thereby avoiding the confounding problem of added TGFβ1. TWIST1 overexpression alone generated vigorous TGFβ1-independent EMT and led to 2-3 fold lower ERK:p38 signaling ratio (i.e. high p38 activity) compared to the empty vector (FIG. 3D).
(§1) SNAIL1 represses TWIST1 during EMT initiation. TWIST1 maintains EMT by creating a low ERK:p38 signaling ratio (high p38 activity). Thus high SNAIL1 levels in primary tumors would induce EMT while high TWIST1 levels would maintain EMT in metastatic cells and possibly contribute to lpDTCs in metastatic sites (FIG. 1).

[5] = test system: TWIST1-positive cells; test: Sensitivity of TWIST1-positive cells to Taxol with or without SB203580 pretreatment; type: cell-based
Description: as §1

| IC50 ([5]; non-pretreated, FIG. 4B) [nM] | IC50 ([5]; pretreatment with SB203580, FIG. 4B) [nM] | Compound | tolerability ([1]; 4 dose levels 0.5, 3, 6 and 10 mg PO qday) | most common side effect: skin rash ([1]; phase 2 trial in emphysema) [%] | severe adverse events ([1]; phase 2 trial in emphysema) | overall survival [2] | total BM DTCs [2] | increase of number of total BM DTCs compared to non-treated animals ([3]; 10 μmol/kg IP BID x 7 days) [fold] | BM DTC count [3] | fraction of BM lpDTCs (TWIST1+; p-p38+; BrdU- DTCs over total BM DTCs) ([3]; listed as SB203085) | TWIST1-dependent growth arrest [4] | decrease of total DTC number ([3]; 10 mg/kg IP once) [fold] | fraction of BM lpDTCs (TWIST1+; p-p38+; BrdU- DTCs over total BM DTCs) [3] |
| --- | --- | --- | --- | --- | --- | --- | --- | --- | --- | --- | --- | --- | --- |
| – | – | CNC(=O)c1ccc(C)c(-n2c(C)cc(OCc3ccc(F)cc3F)c(Br)c2=O)c1 [PH797804, 3-(4-(2,4-difluorobenzyloxy)-3-bromo-6-methyl-2-oxopyridin-1(2H)-yl)-N,4-dimethylbenzamide] | well tolerated | ~1 | No significant severe adverse events | – | – | – | – | – | – | – | – |
| – | – | C[S+]([O-])c1ccc(-c2nc(-c3ccc(F)cc3)c(-c3ccncc3)[nH]2)cc1 (centres unmarked) [SB203580, 4-(4-Fluorophenyl)-2-(4-methylsulfinylphenyl)-5-(4-pyridyl)-1H-imidazole] | – | – | – | increased overall survival | significantly reduced total BM DTCs | > 4 | increases | decreased | reversed TWIST1-dependent growth arrest in a dose dependent manner | – | – |
| > 40 | 6.1 | CC(=O)O[C@H]1C(=O)[C@@]2(C)[C@H]([C@H](OC(=O)c3ccccc3)[C@]3(O)C[C@H](OC(=O)[C@H](O)[C@@H](NC(=O)c4ccccc4)c4ccccc4)C(C)=C1C3(C)C)[C@]1(OC(C)=O)CO[C@@H]1C[C@@H]2O [Taxol, paclitaxel] | – | – | – | – | – | – | decreases | – | – | ~2.5 | enriches; also recorded: significantly increased |

Source: US11452713B2, “Chemotherapeutic methods for treating low-proliferative disseminated tumor cells” (University of Florida Research Foundation, Incorporated, priority 2016, dated 2022)
